Source: CN111743889A, “赤麻木脂素的新用途” (Shanghai Institute of Materia Medica of CAS, priority 2019, dated 2020)

Legend:
Type in all cases: cell-based
[1] = tested on: STAT3 transcription factor [STAT3转录因子]; assay: STAT3 luciferase reporter gene assay (IL-6 induced); details: HepG2 cells stably transfected with reporter; IL-6 10 ng/ml induced; compound 1-40 μM, added 1 h before stimulus; read 5 h after
[2] = tested on: STAT1 transcription factor [STAT1转录因子]; assay: STAT1 luciferase reporter gene assay (IFN-γ induced); details: HepG2 cells stably transfected with reporter; IFN-γ 10 ng/ml induced; compound 1-40 μM, added 1 h before stimulus; read 5 h after
[3] = tested on: NF-κB signalling pathway [NF-κB信号通路]; assay: NF-κB luciferase reporter gene assay (TNF-α induced); details: HEK293 cells with reporter; TNF-α 10 ng/ml induced; compound 1-40 μM, added 1 h before stimulus; read 5 h after
[4] = tested on: STAT3; assay: Western blot, STAT3 phosphorylation; details: IL-6 induced, 10 min; compound 1, 5, 10, 20 μM, 1 h
[5] = tested on: STAT1; assay: Western blot, STAT1 phosphorylation; details: IFN-γ induced, 10 min; compound 1, 5, 10, 20 μM, 1 h
[6] = biological target: T1, JAK1 (Homo sapiens, UniProt P23458); assay: Western blot, JAK1 phosphorylation; details: IL-6, IFN-γ and IFN-α induced, 10 min; compound 1, 5, 10, 20 μM, 1 h
T1 construct: 将细胞以每孔15万的量接种在24孔板内; endogenous in cells; HepG2 and HEK293 are the only lines named

[7] = biological target: T2, JAK2 (Homo sapiens, UniProt O60674); assay: Western blot, JAK2 phosphorylation; details: IL-6, IFN-γ and IFN-α induced, 10 min; compound 1, 5, 10, 20 μM, 1 h
T2 construct: 将细胞以每孔15万的量接种在24孔板内; endogenous in cells; HepG2 and HEK293 are the only lines named

[8] = biological target: T3, TYK2 (Homo sapiens, UniProt P29597); assay: Western blot, TYK2 phosphorylation; details: IL-6, IFN-γ and IFN-α induced, 10 min; compound 1, 5, 10, 20 μM, 1 h
T3 construct: 将细胞以每孔15万的量接种在24孔板内; endogenous in cells; HepG2 and HEK293 are the only lines named

[9] = biological target: T4, PDGFRα (Homo sapiens, UniProt P16234); assay: Western blot, PDGFRα phosphorylation; details: same concentrations (1, 5, 10, 20 μM), 1 h
T4 construct: 将细胞以每孔15万的量接种在24孔板内; endogenous in cells

[10] = biological target: T5, PDGFRβ (Homo sapiens, UniProt P09619); assay: Western blot, PDGFRβ phosphorylation; details: same concentrations (1, 5, 10, 20 μM), 1 h
T5 construct: 将细胞以每孔15万的量接种在24孔板内; endogenous in cells

[11] = biological target: T6, EGFR (Homo sapiens, UniProt P00533); assay: Western blot, EGFR phosphorylation; details: same concentrations (1, 5, 10, 20 μM), 1 h
T6 construct: 将细胞以每孔15万的量接种在24孔板内; endogenous in cells

[12] = biological target: T7, IGF1R (Homo sapiens, UniProt P08069); assay: Western blot, IGF1R phosphorylation; details: same concentrations (1, 5, 10, 20 μM), 1 h
T7 construct: 将细胞以每孔15万的量接种在24孔板内; endogenous in cells

[13] = tested on: IκBα; assay: Western blot, IκBα phosphorylation; details: TNF-α induced, 10 min; compound 1, 5, 10, 20 μM, 1 h
[14] = tested on: IKK-α/β; assay: Western blot, IKK-α/β phosphorylation; details: TNF-α induced, 10 min; compound 1, 5, 10, 20 μM, 1 h

T4 sequence (P16234 24-1089): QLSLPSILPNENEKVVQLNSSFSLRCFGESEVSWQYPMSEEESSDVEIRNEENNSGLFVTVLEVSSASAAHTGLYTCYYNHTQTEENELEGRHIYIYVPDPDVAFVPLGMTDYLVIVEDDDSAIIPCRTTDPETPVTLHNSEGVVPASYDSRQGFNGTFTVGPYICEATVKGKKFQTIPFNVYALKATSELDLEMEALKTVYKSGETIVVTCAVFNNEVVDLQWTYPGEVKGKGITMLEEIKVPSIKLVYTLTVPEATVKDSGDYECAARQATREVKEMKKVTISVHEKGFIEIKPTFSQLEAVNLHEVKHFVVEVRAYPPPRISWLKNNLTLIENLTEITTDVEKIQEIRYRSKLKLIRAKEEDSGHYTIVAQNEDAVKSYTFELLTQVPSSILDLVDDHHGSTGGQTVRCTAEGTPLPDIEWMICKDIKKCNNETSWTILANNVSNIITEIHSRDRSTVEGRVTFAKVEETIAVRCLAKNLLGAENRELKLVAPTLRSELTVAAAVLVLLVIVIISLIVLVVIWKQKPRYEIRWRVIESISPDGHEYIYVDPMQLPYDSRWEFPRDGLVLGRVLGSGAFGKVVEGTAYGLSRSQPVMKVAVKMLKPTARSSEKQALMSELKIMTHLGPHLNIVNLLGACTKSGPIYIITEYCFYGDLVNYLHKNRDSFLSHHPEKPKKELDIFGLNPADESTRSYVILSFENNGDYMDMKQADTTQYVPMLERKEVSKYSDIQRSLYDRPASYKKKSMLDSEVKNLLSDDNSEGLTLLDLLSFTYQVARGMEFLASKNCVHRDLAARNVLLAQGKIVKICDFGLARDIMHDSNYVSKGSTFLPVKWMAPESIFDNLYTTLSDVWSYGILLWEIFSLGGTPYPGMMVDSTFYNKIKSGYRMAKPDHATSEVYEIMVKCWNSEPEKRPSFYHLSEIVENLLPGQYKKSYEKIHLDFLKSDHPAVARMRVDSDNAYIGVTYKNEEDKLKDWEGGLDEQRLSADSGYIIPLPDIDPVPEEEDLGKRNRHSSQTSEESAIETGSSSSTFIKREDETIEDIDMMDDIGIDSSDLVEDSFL
T2 sequence (O60674 whole entry): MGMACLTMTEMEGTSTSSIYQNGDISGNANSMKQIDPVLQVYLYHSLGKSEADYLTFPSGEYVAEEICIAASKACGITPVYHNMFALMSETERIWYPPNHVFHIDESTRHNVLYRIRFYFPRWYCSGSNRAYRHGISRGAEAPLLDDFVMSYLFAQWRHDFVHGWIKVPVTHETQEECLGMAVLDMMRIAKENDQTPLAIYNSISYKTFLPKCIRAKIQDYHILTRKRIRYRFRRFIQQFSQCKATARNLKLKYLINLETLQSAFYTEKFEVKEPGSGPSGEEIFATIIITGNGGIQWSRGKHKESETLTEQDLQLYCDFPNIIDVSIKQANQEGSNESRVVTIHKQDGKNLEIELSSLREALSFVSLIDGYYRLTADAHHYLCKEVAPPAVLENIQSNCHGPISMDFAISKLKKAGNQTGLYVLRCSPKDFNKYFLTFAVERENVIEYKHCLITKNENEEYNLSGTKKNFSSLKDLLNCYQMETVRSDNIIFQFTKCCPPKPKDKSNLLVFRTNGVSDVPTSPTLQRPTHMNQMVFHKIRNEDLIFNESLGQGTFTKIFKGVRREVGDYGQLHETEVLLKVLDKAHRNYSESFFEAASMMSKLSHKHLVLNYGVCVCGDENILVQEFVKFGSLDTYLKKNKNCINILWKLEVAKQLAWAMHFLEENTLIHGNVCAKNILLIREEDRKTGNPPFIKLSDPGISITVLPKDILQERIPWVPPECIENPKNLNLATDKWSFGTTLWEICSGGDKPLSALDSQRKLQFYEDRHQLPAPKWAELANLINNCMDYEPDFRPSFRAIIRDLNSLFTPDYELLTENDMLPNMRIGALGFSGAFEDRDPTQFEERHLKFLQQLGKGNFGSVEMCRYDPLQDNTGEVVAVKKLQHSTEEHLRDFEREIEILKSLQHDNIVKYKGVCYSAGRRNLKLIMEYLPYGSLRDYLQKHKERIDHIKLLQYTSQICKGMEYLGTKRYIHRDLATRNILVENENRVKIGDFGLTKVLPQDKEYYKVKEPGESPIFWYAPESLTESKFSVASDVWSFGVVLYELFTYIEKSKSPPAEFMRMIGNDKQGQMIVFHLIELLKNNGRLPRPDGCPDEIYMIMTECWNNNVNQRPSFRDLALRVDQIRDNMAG
T1 sequence (P23458 whole entry): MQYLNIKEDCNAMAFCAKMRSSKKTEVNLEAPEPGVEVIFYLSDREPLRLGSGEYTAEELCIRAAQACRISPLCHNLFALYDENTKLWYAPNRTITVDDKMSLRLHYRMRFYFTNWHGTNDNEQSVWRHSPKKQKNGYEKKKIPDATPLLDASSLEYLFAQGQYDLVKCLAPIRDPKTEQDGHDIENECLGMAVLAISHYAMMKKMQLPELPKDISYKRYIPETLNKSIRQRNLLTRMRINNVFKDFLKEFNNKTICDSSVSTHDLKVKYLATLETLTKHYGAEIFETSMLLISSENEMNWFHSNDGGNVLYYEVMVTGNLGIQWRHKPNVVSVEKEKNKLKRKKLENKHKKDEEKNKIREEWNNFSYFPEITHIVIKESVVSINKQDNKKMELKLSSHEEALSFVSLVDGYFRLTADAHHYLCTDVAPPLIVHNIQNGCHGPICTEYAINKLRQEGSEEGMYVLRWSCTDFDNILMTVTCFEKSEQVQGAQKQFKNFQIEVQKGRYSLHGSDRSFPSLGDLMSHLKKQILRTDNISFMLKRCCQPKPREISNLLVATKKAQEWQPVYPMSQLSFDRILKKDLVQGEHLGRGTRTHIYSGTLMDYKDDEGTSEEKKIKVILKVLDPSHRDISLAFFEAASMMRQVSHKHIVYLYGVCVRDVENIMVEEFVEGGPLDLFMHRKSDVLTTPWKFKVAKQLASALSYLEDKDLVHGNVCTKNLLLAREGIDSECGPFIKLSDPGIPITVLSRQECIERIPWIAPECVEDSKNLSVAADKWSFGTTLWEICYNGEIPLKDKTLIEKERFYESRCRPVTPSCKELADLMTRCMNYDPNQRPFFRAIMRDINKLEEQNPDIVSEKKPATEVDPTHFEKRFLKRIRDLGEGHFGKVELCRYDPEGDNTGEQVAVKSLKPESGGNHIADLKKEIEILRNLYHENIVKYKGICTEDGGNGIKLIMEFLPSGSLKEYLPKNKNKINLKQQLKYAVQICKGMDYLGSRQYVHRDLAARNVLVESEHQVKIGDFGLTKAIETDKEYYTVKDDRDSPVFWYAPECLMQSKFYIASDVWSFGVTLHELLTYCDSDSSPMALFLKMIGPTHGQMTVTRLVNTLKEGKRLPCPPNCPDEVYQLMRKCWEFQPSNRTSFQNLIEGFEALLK
T5 sequence (P09619 33-1106): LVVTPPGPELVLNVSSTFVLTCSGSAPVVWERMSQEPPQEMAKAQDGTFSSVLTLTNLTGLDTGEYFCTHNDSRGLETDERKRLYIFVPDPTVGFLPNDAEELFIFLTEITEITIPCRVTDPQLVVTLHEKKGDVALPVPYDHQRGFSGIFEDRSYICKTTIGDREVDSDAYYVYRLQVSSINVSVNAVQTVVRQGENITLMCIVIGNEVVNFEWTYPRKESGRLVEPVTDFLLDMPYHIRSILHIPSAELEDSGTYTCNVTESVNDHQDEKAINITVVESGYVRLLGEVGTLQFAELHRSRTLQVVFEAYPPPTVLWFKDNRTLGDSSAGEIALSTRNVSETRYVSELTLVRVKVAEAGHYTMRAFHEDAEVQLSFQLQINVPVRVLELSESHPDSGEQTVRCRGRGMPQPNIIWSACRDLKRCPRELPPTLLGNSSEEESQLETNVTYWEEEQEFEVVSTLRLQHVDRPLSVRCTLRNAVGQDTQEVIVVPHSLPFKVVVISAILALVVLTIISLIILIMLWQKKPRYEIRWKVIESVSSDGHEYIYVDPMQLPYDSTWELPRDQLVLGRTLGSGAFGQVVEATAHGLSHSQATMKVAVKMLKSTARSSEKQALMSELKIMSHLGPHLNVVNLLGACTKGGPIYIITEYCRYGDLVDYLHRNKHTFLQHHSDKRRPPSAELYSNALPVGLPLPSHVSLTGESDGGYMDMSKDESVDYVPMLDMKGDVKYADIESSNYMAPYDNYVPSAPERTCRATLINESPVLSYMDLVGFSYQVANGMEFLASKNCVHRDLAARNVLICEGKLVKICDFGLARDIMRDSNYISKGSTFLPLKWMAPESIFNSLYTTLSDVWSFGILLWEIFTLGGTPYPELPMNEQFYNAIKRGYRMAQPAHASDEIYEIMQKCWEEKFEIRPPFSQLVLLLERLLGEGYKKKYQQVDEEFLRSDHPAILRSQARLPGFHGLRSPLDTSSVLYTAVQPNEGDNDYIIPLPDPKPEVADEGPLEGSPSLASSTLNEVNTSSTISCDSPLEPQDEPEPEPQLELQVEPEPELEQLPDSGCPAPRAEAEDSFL

**Q.** For `COc1cc(C=CC(=O)OCCCc2cc(OC)c3c(c2)C(COC(=O)C=Cc2ccc(O)c(OC)c2)C(c2ccc(O)c(OC)c2)O3)ccc1O` (centres unmarked) [赤麻木脂素, 3-(4-Hydroxy-3-methoxyphenyl)propenoic acid 3-[2,3-dihydro-2-(4-hydroxy-3-methoxyphenyl)-3-[[[3-(4-hydroxy-3-methoxyphenyl)-1-oxo-2-propenyl]oxy]methyl]-7-methoxybenzofuran-5-yl]propyl ester], which “inhibition of transcriptional activity of STAT3 transcription factor (luciferase)” value [1] is on record?
**A.** Its value is “剂量依赖性的抑制”.

**Q.** And the “inhibition of transcriptional activity of STAT1 transcription factor (luciferase)” value [2]?
**A.** The value was “剂量依赖性的抑制”.

**Q.** And the “inhibition of NF-κB signalling pathway (NF-κB-dependent luciferase activity)” value [3]?
**A.** The value was “浓度依赖性的抑制”.

**Q.** What about the “inhibition of STAT3 phosphorylation” value [4] of the same molecule?
**A.** The value was “抑制”.

**Q.** What about the “inhibition of STAT1 phosphorylation” value [5] of the same molecule?
**A.** Its value is “抑制”.

**Q.** And the “inhibition of JAK phosphorylation (p-JAK1)” value [6]?
**A.** The value was “抑制”.

**Q.** And the “inhibition of JAK phosphorylation (p-JAK2)” value [7]?
**A.** Its value is “抑制”.

**Q.** What about the “inhibition of JAK phosphorylation (p-TYK2)” value [8] of the same molecule?
**A.** The value was “抑制”.

**Q.** What about the “effect on phosphorylation of other tyrosine kinases (PDGFRα)” value [9] of the same molecule?
**A.** The value was “没有抑制作用”.

**Q.** And the “effect on phosphorylation of other tyrosine kinases (PDGFRβ)” value [10]?
**A.** The value was “没有抑制作用”.

**Q.** What about the “effect on phosphorylation of other tyrosine kinases (EGFR)” value [11] of the same molecule?
**A.** Its value is “没有抑制作用”.

**Q.** What about the “effect on phosphorylation of other tyrosine kinases (IGF1R)” value [12] of the same molecule?
**A.** The value was “没有抑制作用”.

**Q.** And the “inhibition of IκBα phosphorylation” value [13]?
**A.** The value was “抑制”.

**Q.** And the “inhibition of IKK-α/β phosphorylation” value [14]?
**A.** The value was “抑制”.
